Test results: the supplement of paper PMC8960247
Counter-ions that a name gives are not always drawn. ± gives the standard error.

Legend:
621-103 (TSC2-rescued) = assay: relative viability vs DMSO; higher = less cytotoxic; conditions: serum: 10% FBS, 72 h
621-102 (TSC2-deficient) = assay: as above; conditions: serum: 10% FBS, 72 h
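Also: immortalized renal angiomyolipoma cells stably carrying empty vector or TSC2, dosed in 384-well plates in DMEM, viability normalized to vehicle-treated wells within each plate.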

Structure (SMILES) | relative viability (621-103 (TSC2-rescued); 0.0001 µM) | relative viability (621-103 (TSC2-rescued); 0.001 µM) | relative viability (621-103 (TSC2-rescued); 0.01 µM) | relative viability (621-103 (TSC2-rescued); 0.1 µM) | relative viability (621-103 (TSC2-rescued); 1 µM) | relative viability (621-103 (TSC2-rescued); 10 µM) | relative viability (621-102 (TSC2-deficient); 0.0001 µM) | relative viability (621-102 (TSC2-deficient); 0.001 µM) | relative viability (621-102 (TSC2-deficient); 0.01 µM) | relative viability (621-102 (TSC2-deficient); 0.1 µM) | relative viability (621-102 (TSC2-deficient); 1 µM) | relative viability (621-102 (TSC2-deficient); 10 µM)
CO[C@H]1C[C@@H]2CC[C@@H](C)[C@@](O)(O2)C(=O)C(=O)N2CCCC[C@H]2C(=O)O[C@H]([C@H](C)C[C@@H]2CC[C@@H](OCCO)[C@H](OC)C2)CC(=O)[C@H](C)/C=C(\C)[C@@H](O)[C@@H](OC)C(=O)[C@H](C)C[C@H](C)/C=C/C=C/C=C/1C [Everolimus (RAD001)] | 71.1 ± 3.2% | 69.7 ± 1.3% | 68.2 ± 1.6% | 71.6 ± 2% | 75.3 ± 2.6% | 67.6 ± 0.97% | 46.7 ± 2.2% | 56.4 ± 1.5% | 49.8 ± 4.2% | 52.7 ± 3.3% | 54.2 ± 3% | 50.3 ± 3.7%
O=S(=O)(c1cccc2cnccc12)N1CCCNCC1 [Fasudil HCl] | 102 ± 2.1% | 98.11 ± 0.26% | 99.94 ± 0.62% | 97.3 ± 1.3% | 97.052 ± 0.09% | 101.9 ± 0.26% | 95.7 ± 1.9% | 111.14 ± 0.069% | 100 ± 7.1% | 107.7 ± 0.97% | 110 ± 3.2% | 83.5 ± 3.1%
Cc1nc(-c2ccc(OCC(C)C)c(C#N)c2)sc1C(=O)O [Febuxostat] | 104 ± 2.5% | 100.5 ± 0.98% | 101 ± 2.4% | 102 ± 4% | 98.3 ± 0.27% | 101.3 ± 0.28% | 104 ± 2.3% | 104 ± 2.4% | 102.5 ± 0.48% | 105 ± 5.9% | 100.8 ± 0.75% | 99.9 ± 2.2%
CCOC(=O)C1=C(C)NC(C)=C(C(=O)OC)C1c1cccc(Cl)c1Cl (configuration not stated) [Felodipine] | 104.4 ± 0.74% | 100.1 ± 0.68% | 104 ± 3.1% | 98.2 ± 1.4% | 100 ± 1.6% | 106 ± 2.3% | 103 ± 2.2% | 97.3 ± 5.4% | 101 ± 4.7% | 103 ± 1.5% | 106 ± 1.6% | 117 ± 4.6%
COC(=O)Nc1nc2cc(Sc3ccccc3)ccc2[nH]1 [Fenbendazole (Panacur)] | 108 ± 3.3% | 102 ± 3.8% | 110.5 ± 0.51% | 102 ± 2.8% | 44.28 ± 0.059% | 40.924 ± 0.025% | 114 ± 2% | 109.5 ± 0.17% | 98.4 ± 4.1% | 91.8 ± 1.4% | 38.2 ± 1.4% | 39.5 ± 0.88%
CC(C)C(=O)Oc1ccc(CO)cc1[C@H](CCN(C(C)C)C(C)C)c1ccccc1 [Fesoterodine fumarate (Toviaz)] | 104 ± 1.1% | 105 ± 3% | 106 ± 2.1% | 107 ± 5.6% | 101.2 ± 0.67% | 95.413 ± 0.0029% | 97.3 ± 5.3% | 100.52 ± 0.035% | 102 ± 1.2% | 109 ± 3.6% | 93.13 ± 0.096% | 94.5 ± 1.9%
CC(C)(C)NC(=O)[C@H]1CC[C@H]2[C@@H]3CC[C@H]4NC(=O)C=C[C@]4(C)[C@H]3CC[C@]12C [Finasteride] | 102.7 ± 0.88% | 101 ± 1.6% | 102.1 ± 0.43% | 101.2 ± 0.15% | 101.2 ± 0.59% | 99.6 ± 0.87% | 112 ± 1.9% | 114 ± 4% | 106 ± 2% | 99.13 ± 0.73% | 92.7 ± 2% | 92.5 ± 2.9%
CN1CC[C@H](c2c(O)cc(O)c3c(=O)cc(-c4ccccc4Cl)oc23)[C@H](O)C1 [Flavopiridol (Alvocidib)] | 103 ± 4.3% | 100.4 ± 0.89% | 102.2 ± 0.86% | 55.26 ± 0.43% | 17.8 ± 0.22% | 21.81 ± 0.19% | 104 ± 1.3% | 104.1 ± 0.59% | 95.5 ± 5% | 45.4 ± 1.9% | 11.3 ± 0.76% | 11.7 ± 0.13%
CN1CC[C@H](c2c(O)cc(O)c3c(=O)cc(-c4ccccc4Cl)oc23)[C@H](O)C1 [Flavopiridol HCl] | 91.4 ± 6.3% | 88 ± 1.4% | 90.7 ± 3.4% | 55.2 ± 0.46% | 13 ± 0.61% | 11 ± 0.25% | 103 ± 1.6% | 98.59 ± 0.27% | 93.1 ± 5.7% | 49.2 ± 0.89% | 10.5 ± 0.34% | 10.1 ± 1.1%
CN1CCN(c2c(F)cc3c(=O)c(C(=O)O)cn(CCF)c3c2F)CC1 [Fleroxacin (Quinodis)] | 96.7 ± 2.6% | 92.52 ± 0.83% | 92.3 ± 1.4% | 98.4 ± 1.5% | 105 ± 5% | 109 ± 1.7% | 104 ± 1.2% | 111 ± 3.5% | 102 ± 2.7% | 91.53 ± 0.47% | 90.9 ± 1.1% | 91.6 ± 4.7%
Nc1nc(=O)[nH]cc1F [Flucytosine (Ancobon)] | 105.5 ± 0.24% | 101 ± 3.4% | 104.5 ± 0.84% | 106 ± 1.2% | 103 ± 1.4% | 98.9 ± 4.4% | 92.9 ± 2.9% | 99.4 ± 1.2% | 103.85 ± 0.042% | 102.2 ± 0.19% | 98.4 ± 4.1% | 92.5 ± 3.2%
Nc1nc(F)nc2c1ncn2[C@@H]1O[C@H](CO)[C@@H](O)[C@@H]1O [Fludarabine (Fludara)] | 108 ± 4.5% | 92.6 ± 8.1% | 102 ± 1.6% | 102.9 ± 1% | 102.8 ± 0.34% | 86.6 ± 8% | 101 ± 3.9% | 92 ± 1.4% | 106 ± 1.3% | 100.6 ± 0.41% | 94.7 ± 5.7% | 86.22 ± 0.37%
Nc1nc(F)nc2c1ncn2[C@@H]1O[C@H](COP(=O)(O)O)[C@@H](O)[C@@H]1O [Fludarabine Phosphate] | 104 ± 2.1% | 104 ± 2.7% | 103.3 ± 0.34% | 102.6 ± 0.82% | 100 ± 1.7% | 89.1 ± 6.1% | 98.1 ± 1.6% | 105 ± 1.1% | 101.7 ± 0.47% | 106 ± 1.9% | 96.4 ± 7.2% | 94 ± 1.7%
CNCCC(Oc1ccc(C(F)(F)F)cc1)c1ccccc1 (configuration not stated) [Fluoxetine HCl] | 100 ± 4.3% | 109 ± 2% | 106 ± 1.8% | 99.6 ± 1.9% | 104 ± 1.3% | 70.9 ± 2% | 101.3 ± 0.38% | 100 ± 1.8% | 109 ± 2.5% | 107 ± 2.1% | 99.3 ± 1.1% | 86.9 ± 2.2%
CC(C)n1c(/C=C/C(O)CC(O)CC(=O)O)c(-c2ccc(F)cc2)c2ccccc21 (configuration not stated) [Fluvastatin Sodium] | 102 ± 2.2% | 95.8 ± 2.6% | 99.5 ± 4.6% | 100 ± 2.1% | 71.8 ± 4.7% | 32.19 ± 0.096% | 102 ± 1.5% | 106 ± 3.3% | 105 ± 1.1% | 101 ± 3.1% | 100 ± 2.8% | 73.38 ± 0.72%
C[C@]12CCC(=O)C(O)=C1CC[C@@H]1[C@@H]2CC[C@]2(C)C(=O)CC[C@@H]12 [Formestane] | 105 ± 4% | 102.8 ± 0.63% | 105.2 ± 0.81% | 102 ± 1.2% | 101 ± 3.9% | 102.4 ± 0.89% | 105 ± 1.1% | 113 ± 3.5% | 120 ± 4.2% | 94.73 ± 0.3% | 98.9 ± 1.5% | 109 ± 0.99%
C[C@]12CC[C@@H]3c4ccc(O)cc4C[C@@H](CCCCCCCCC[S+]([O-])CCCC(F)(F)C(F)(F)F)[C@H]3[C@@H]1CC[C@@H]2O (some centres not stated) [Fulvestrant] | 104 ± 1.3% | 101.5 ± 0.32% | 100 ± 1.9% | 102.2 ± 0.13% | 103 ± 1.7% | 104 ± 1.2% | 119.5 ± 0.33% | 117.7 ± 1% | 115 ± 2.2% | 114.7 ± 0.26% | 120 ± 3.1% | 113 ± 3.3%
CS(=O)(=O)c1ccc(C(=O)Nc2ccc(Cl)c(-c3ccccn3)c2)c(Cl)c1 [GDC-0449 (Vismodegib)] | 100.4 ± 1% | 100 ± 1.6% | 103 ± 1.6% | 102.1 ± 0.15% | 103.2 ± 0.18% | 102 ± 0.43% | 103 ± 2.5% | 111.7 ± 0.39% | 111.9 ± 0.39% | 111 ± 2.7% | 116.2 ± 0.59% | 104 ± 1.8%
OCCn1cc(-c2ccc3c(c2)CC/C3=N\O)c(-c2ccncc2)n1 [GDC-0879] | 101.6 ± 0.87% | 97.76 ± 0.82% | 98.9 ± 1.5% | 99.06 ± 0.76% | 96.15 ± 0.42% | 100.41 ± 0.061% | 101.5 ± 0.2% | 102 ± 1.7% | 107 ± 2.4% | 102 ± 2.6% | 108 ± 1.7% | 92.1 ± 2%
CS(=O)(=O)N1CCN(Cc2cc3nc(-c4cccc5[nH]ncc45)nc(N4CCOCC4)c3s2)CC1 [GDC-0941] | 98.45 ± 0.81% | 100 ± 2.2% | 98.08 ± 0.38% | 97.2 ± 2.3% | 83.3 ± 0.97% | 37.9 ± 0.47% | 106 ± 1.4% | 114 ± 2.3% | 114.7 ± 0.27% | 111 ± 2.6% | 97 ± 1.1% | 53.69 ± 0.36%
Cc1c(CN2CCN(C(=O)[C@H](C)O)CC2)sc2c(N3CCOCC3)nc(-c3cnc(N)nc3)nc12 [GDC-0980 (RC7422)] | 100.8 ± 0.26% | 98.64 ± 0.9% | 91.5 ± 5.1% | 75.5 ± 4.4% | 35.3 ± 2.2% | 30.2 ± 2% | 101 ± 1.1% | 114 ± 1.6% | 99.9 ± 1.4% | 89.64 ± 0.5% | 39.1 ± 1% | 23.3 ± 0.98%
O=C(O)Cc1cccc(OCCCN(Cc2cccc(C(F)(F)F)c2Cl)CC(c2ccccc2)c2ccccc2)c1 [GW3965] | 107 ± 1.3% | 108 ± 3.5% | 110.7 ± 1% | 106 ± 4.5% | 99.6 ± 5.4% | 101 ± 3.5% | 89.3 ± 0.92% | 88.7 ± 4% | 86.8 ± 4.3% | 86.31 ± 0.36% | 77.5 ± 4% | 86.9 ± 5.4%
CC[N+](CC)(CC)CCOc1cccc(OCC[N+](CC)(CC)CC)c1OCC[N+](CC)(CC)CC [Gallamine triethiodide (Flaxedil)] | 99.9 ± 4.2% | 87.2 ± 3% | 103 ± 1.7% | 92.4 ± 3.8% | 87.3 ± 1.9% | 99.6 ± 4.1% | 105 ± 2.9% | 109.1 ± 0.49% | 103 ± 3.5% | 102.6 ± 0.87% | 103.6 ± 0.17% | 89 ± 2%
COc1cc2ncnc(Nc3ccc(F)c(Cl)c3)c2cc1OCCCN1CCOCC1 [Gefitinib] | 101 ± 1.8% | 101 ± 1.2% | 102 ± 1.6% | 99.7 ± 1.1% | 99.2 ± 1.2% | 76.4 ± 3.7% | 111 ± 1.2% | 105.6 ± 0.46% | 106.5 ± 0.3% | 96.3 ± 4.1% | 100 ± 1.1% | 84.7 ± 1.8%
CNC(C)C1CCC(N)C(OC2C(N)CC(N)C(OC3OCC(C)(O)C(NC)C3O)C2O)O1 (configuration not stated) [Gentamycin sulfate (Gentacycol)] | 99.8 ± 1.9% | 89.3 ± 9.2% | 89.5 ± 1.6% | 94.13 ± 0.19% | 88.3 ± 7.1% | 96.9 ± 3.5% | 104 ± 4.4% | 109 ± 2.3% | 113 ± 2.6% | 109 ± 4.9% | 106.5 ± 0.17% | 91.9 ± 1.7%
CN1C2CCCC1CC(NC(=O)c1nn(C)c3ccccc13)C2 (configuration not stated) [Granisetron HCl] | 105.6 ± 0.89% | 102 ± 1.7% | 106.4 ± 0.23% | 106 ± 5.2% | 103 ± 4.2% | 102 ± 3% | 101 ± 3.8% | 99.5 ± 1% | 94.6 ± 1.2% | 99.56 ± 0.18% | 102.3 ± 0.95% | 95.1 ± 1.5%
